Assays:
surinam grass = experiment: Test B pre/postemergence surinam grass; assay type: in vivo, Brachiaria decumbens
Summary of the method: (§1)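 Herbicidal effect was estimated by eye on a ten-point control scale after plants spent twelve to sixteen days in a greenhouse following soil or foliar treatment. Foliar sprays targeted plants at one to four leaves; all doses were formulated in a non-phytotoxic solvent with surfactant.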

rape = experiment: Test B pre/postemergence rape; assay type: in vivo, Brassica napus
Summary of the method: as §1

wheat = experiment: Test B pre/postemergence wheat; assay type: in vivo, Triticum aestivum
Summary of the method: as §1

giant foxtail = experiment: Test B pre/postemergence giant foxtail; assay type: in vivo, Setaria faberii
Summary of the method: as §1

cocklebur = experiment: Test B pre/postemergence cocklebur; assay type: in vivo, Xanthium strumarium
Summary of the method: as §1

velvetleaf = experiment: Test B pre/postemergence velvetleaf; assay type: in vivo, Abutilon theophrasti
Summary of the method: as §1

rice = experiment: Test B flood test rice; assay type: in vivo, Oryza sativa
Summary of the method: (§2)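 Each value is a visual injury score relative to controls, with 10 meaning complete control and 0 no effect. Evaluation took place twelve to sixteen days after the 2-leaf-stage plants were treated and kept in the greenhouse.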

purple nutsedge = experiment: Test B pre/postemergence purple nutsedge; assay type: in vivo, Cyperus rotundus
Summary of the method: as §1

blackgrass = experiment: Test B pre/postemergence blackgrass; assay type: in vivo, Alopecurus myosuroides
Summary of the method: as §1

smallflower flatsedge = experiment: Test B flood test smallflower flatsedge; assay type: in vivo, Cyperus difformis
Summary of the method: as §2

pigweed = experiment: Test B pre/postemergence pigweed; assay type: in vivo, Amaranthus retroflexus
Summary of the method: as §1

sugar beet = experiment: Test B pre/postemergence sugar beet; assay type: in vivo, Beta vulgaris
Summary of the method: as §1

duck salad = experiment: Test B flood test duck salad; assay type: in vivo, Heteranthera limosa
Summary of the method: as §2

corn = experiment: Test B pre/postemergence corn; assay type: in vivo, Zea mays
Summary of the method: as §1

morningglory = experiment: Test B pre/postemergence morningglory; assay type: in vivo, Ipomoea hederacea
Summary of the method: as §1

crabgrass = experiment: Test B pre/postemergence crabgrass; assay type: in vivo, Digitaria sanguinalis
Summary of the method: as §1

[1] = Postemergence, Rate 125 g/ha, scale of 0 to 10 where 0 is no effect and 10 is complete control
[2] = Preemergence, Rate 62 g/ha, scale of 0 to 10 where 0 is no effect and 10 is complete control
[3] = Preemergence, Rate 125 g/ha, 0 is no effect, 10 is complete control
[4] = Preemergence, Rate 250 g/ha, scale 0 to 10, 0 is no effect, 10 is complete control
[5] = Preemergence, Rate 500 g/ha, scale 0 to 10 (0 no effect, 10 complete control)
[6] = Rate 62 g/ha, Postemergence, scale of 0 to 10 where 0 is no effect and 10 is complete control
[7] = Rate 250 g/ha, Postemergence, scale 0 to 10, 0 is no effect, 10 is complete control
[8] = Rate 500 g/ha, Postemergence, scale 0 to 10
[9] = Postemergence (flood test species), Rate 125 g/ha, scale of 0 to 10 where 0 is no effect and 10 is complete control
[10] = Rate 62 g/ha, Postemergence section, flood test species, scale of 0 to 10 where 0 is no effect and 10 is complete control
[11] = Rate 250 g/ha, Postemergence (flood test), scale 0 to 10, 0 is no effect, 10 is complete control
[12] = Rate 500 g/ha, listed under Postemergence (flood test species), scale 0 to 10

For `Cc1ccccc1-n1c(=O)on(C(=O)N(c2cccc(F)c2F)C(C)C)c1=O` [Compound 171], the “B. signalgrass plant response rating” value (surinam grass; [1]) was 0, the “B. signalgrass plant response rating” value (surinam grass; [2]) was 0 and the “B. signalgrass plant response rating (0 to 10 scale)” value (surinam grass; [3]) was 1. For the same molecule, the “B. signalgrass plant response rating” value (surinam grass; [4]) was 3, the “B. signalgrass plant response rating” value (surinam grass; [5]) was 5 and the “B. signalgrass plant response rating” value (surinam grass; [6]) was 0. For the same molecule, the “Plant response rating, B. signalgrass” value (surinam grass; [7]) was 0, the “B. signalgrass plant response rating” value (surinam grass; Rate 500 g/ha, Postemergence, scale 0 to 10, 0 no effect, 10 complete control) was 0 and the “Rape plant response rating” value (rape; [1]) was 0. For the same molecule, the “Rape plant response rating” value (rape; [2]) was 0, the “Rape plant response rating (0 to 10 scale)” value (rape; [3]) was 0 and the “Rape plant response rating” value (rape; [5]) was 4. For the same molecule, the “Rape plant response rating” value (rape; [6]) was 0, the “Plant response rating, Rape” value (rape; [7]) was 0 and the “Rape plant response rating” value (rape; [8]) was 0. The “Wheat plant response rating” value (wheat; [2]) was 0, the “Wheat plant response rating (0 to 10 scale)” value (wheat; [3]) was 0 and the “Wheat plant response rating” value (wheat; [4]) was 0. The “Wheat plant response rating” value (wheat; [5]) was 0, the “Plant response rating, Wheat” value (wheat; [7]) was 0 and the “Wheat plant response rating” value (wheat; [8]) was 0. The “Giant foxtail plant response rating” value (giant foxtail; [1]) was 0, the “Giant foxtail plant response rating” value (giant foxtail; [2]) was 5 and the “Giant foxtail plant response rating (0 to 10 scale)” value (giant foxtail; [3]) was 7. The “Giant foxtail plant response rating” value (giant foxtail; [4]) was 10, the “Giant foxtail plant response rating” value (giant foxtail; [5]) was 10 and the “Giant foxtail plant response rating” value (giant foxtail; [6]) was 0. For the same molecule, the “Plant response rating, Giant foxtail” value (giant foxtail; [7]) was 0, the “Giant foxtail plant response rating” value (giant foxtail; [8]) was 0 and the “Cocklebur plant response rating” value (cocklebur; [1]) was 0. For the same molecule, the “Cocklebur plant response rating” value (cocklebur; [2]) was 0, the “Cocklebur plant response rating (0 to 10 scale)” value (cocklebur; [3]) was 0 and the “Cocklebur plant response rating” value (cocklebur; [4]) was 0. The “Cocklebur plant response rating” value (cocklebur; [5]) was 0, the “Cocklebur plant response rating” value (cocklebur; [6]) was 0 and the “Plant response rating, Cocklebur” value (cocklebur; [7]) was 3. For the same molecule, the “Cocklebur plant response rating” value (cocklebur; [8]) was 3, the “Velvetleaf plant response rating” value (velvetleaf; [2]) was 0 and the “Velvetleaf plant response rating (0 to 10 scale)” value (velvetleaf; [3]) was 0. For the same molecule, the “Velvetleaf plant response rating” value (velvetleaf; [4]) was 0, the “Velvetleaf plant response rating” value (velvetleaf; [5]) was 0 and the “Plant response rating, Velvetleaf” value (velvetleaf; [7]) was 0. For the same molecule, the “Velvetleaf plant response rating” value (velvetleaf; [8]) was 3, the “Rice plant response rating” value (rice; [9]) was 0 and the “Rice plant response rating” value (rice; [10]) was 0. The “Plant response rating, Rice” value (rice; [11]) was 0, the “Rice plant response rating” value (rice; [12]) was 0 and the “Nutsedge plant response rating” value (purple nutsedge; [1]) was 0. The “Nutsedge plant response rating” value (purple nutsedge; [2]) was 0, the “Nutsedge plant response rating (0 to 10 scale)” value (purple nutsedge; [3]) was 0 and the “Nutsedge plant response rating” value (purple nutsedge; [4]) was 0. The “Nutsedge plant response rating” value (purple nutsedge; [5]) was 0, the “Nutsedge plant response rating” value (purple nutsedge; [6]) was 0 and the “Plant response rating, Nutsedge” value (purple nutsedge; [7]) was 0. The “Nutsedge plant response rating” value (purple nutsedge; [8]) was 0, the “Blackgrass plant response rating” value (blackgrass; [1]) was 0 and the “Blackgrass plant response rating” value (blackgrass; [2]) was 0. For the same molecule, the “Blackgrass plant response rating (0 to 10 scale)” value (blackgrass; [3]) was 0, the “Blackgrass plant response rating” value (blackgrass; [4]) was 0 and the “Blackgrass plant response rating” value (blackgrass; [5]) was 2. For the same molecule, the “Blackgrass plant response rating” value (blackgrass; [6]) was 0, the “Plant response rating, Blackgrass” value (blackgrass; [7]) was 0 and the “Blackgrass plant response rating” value (blackgrass; [8]) was 0. For the same molecule, the “S. Flatsedge plant response rating” value (smallflower flatsedge; [9]) was 0, the “S. Flatsedge plant response rating” value (smallflower flatsedge; [10]) was 0 and the “Plant response rating, S. Flatsedge” value (smallflower flatsedge; [11]) was 0. For the same molecule, the “S. Flatsedge plant response rating” value (smallflower flatsedge; [12]) was 0, the “Redroot pigweed plant response rating” value (pigweed; [1]) was 0 and the “Redroot pigweed plant response rating” value (pigweed; [2]) was 0. The “Redroot pigweed plant response rating (0 to 10 scale)” value (pigweed; [3]) was 0, the “Redroot pigweed plant response rating” value (pigweed; [4]) was 5 and the “Redroot pigweed plant response rating” value (pigweed; [5]) was 6. The “Redroot pigweed plant response rating” value (pigweed; [6]) was 0, the “Plant response rating, Redroot pigweed” value (pigweed; [7]) was 0 and the “Redroot pigweed plant response rating” value (pigweed; [8]) was 5. The “Sugarbeets plant response rating” value (sugar beet; [1]) was 0, the “Sugarbeets plant response rating” value (sugar beet; [2]) was 0 and the “Sugarbeets plant response rating (0 to 10 scale)” value (sugar beet; [3]) was 0. The “Sugarbeets plant response rating” value (sugar beet; [4]) was 0, the “Sugarbeets plant response rating” value (sugar beet; [5]) was 0 and the “Sugarbeets plant response rating” value (sugar beet; [6]) was 0. For the same molecule, the “Plant response rating, Sugarbeets” value (sugar beet; [7]) was 2, the “Sugarbeets plant response rating” value (sugar beet; [8]) was 2 and the “Ducksalad plant response rating” value (duck salad; [9]) was 0. For the same molecule, the “Ducksalad plant response rating” value (duck salad; [10]) was 0, the “Plant response rating, Ducksalad” value (duck salad; [11]) was 0 and the “Ducksalad plant response rating” value (duck salad; [12]) was 0. The “Corn plant response rating” value (corn; [1]) was 0, the “Corn plant response rating” value (corn; [2]) was 0 and the “Corn plant response rating (0 to 10 scale)” value (corn; [3]) was 0. The “Corn plant response rating” value (corn; [4]) was 0, the “Corn plant response rating” value (corn; [5]) was 0 and the “Corn plant response rating” value (corn; [6]) was 0. For the same molecule, the “Plant response rating, Corn” value (corn; [7]) was 0, the “Corn plant response rating” value (corn; [8]) was 0 and the “Morningglory plant response rating” value (morningglory; [1]) was 1. For the same molecule, the “Morningglory plant response rating” value (morningglory; [2]) was 0, the “Morningglory plant response rating (0 to 10 scale)” value (morningglory; [3]) was 0 and the “Morningglory plant response rating” value (morningglory; [4]) was 0. The “Morningglory plant response rating” value (morningglory; [5]) was 0, the “Morningglory plant response rating” value (morningglory; [6]) was 0 and the “Plant response rating, Morningglory” value (morningglory; [7]) was 2. For the same molecule, the “Morningglory plant response rating” value (morningglory; [8]) was 2, the “Crabgrass plant response rating” value (crabgrass; [1]) was 0 and the “Crabgrass plant response rating” value (crabgrass; [2]) was 2. The “Crabgrass plant response rating (0 to 10 scale)” value (crabgrass; [3]) was 7, the “Crabgrass plant response rating” value (crabgrass; [4]) was 10 and the “Crabgrass plant response rating” value (crabgrass; [5]) was 10. For the same molecule, the “Crabgrass plant response rating” value (crabgrass; [6]) was 0, the “Plant response rating, Crabgrass” value (crabgrass; [7]) was 2 and the “Crabgrass plant response rating” value (crabgrass; [8]) was 7.
